Source: BindingDB's records for PubMed 1320692 (Ciba-Geigy, 1992)
Where “and” joins values, the source holds several entries; their conditions need not be identical. Equal entries are not always repeated.

Target: T1, Leukotriene B4 receptor 2 (Homo sapiens, UniProt Q9NPC1)
T1 sequence (Q9NPC1 whole entry): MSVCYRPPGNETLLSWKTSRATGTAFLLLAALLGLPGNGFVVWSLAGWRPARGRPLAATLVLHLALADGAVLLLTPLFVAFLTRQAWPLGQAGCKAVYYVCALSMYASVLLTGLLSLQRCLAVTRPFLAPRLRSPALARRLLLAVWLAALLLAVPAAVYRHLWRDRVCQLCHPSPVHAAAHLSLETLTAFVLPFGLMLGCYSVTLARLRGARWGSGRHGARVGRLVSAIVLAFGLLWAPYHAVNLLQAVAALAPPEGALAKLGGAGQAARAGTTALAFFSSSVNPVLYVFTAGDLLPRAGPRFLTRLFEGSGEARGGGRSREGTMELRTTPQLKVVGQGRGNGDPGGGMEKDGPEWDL

Ki | SMILES
35 nM and 15 nM | COc1ccc(/C=C/CCCCOc2ccc(C(=O)c3cccc(C(=O)O)c3)cc2CCC(=O)O)cc1 [(Z)-3-{3-(2-Carboxy-ethyl)-4-[6-(4-methoxy-phenyl)-hex-5-enyloxy]-benzoyl}-benzoic acid]
885 nM | CCCCCCCCC(O)/C=C/c1cccc(C)n1 (centres undefined) [CGS 23114]
24 nM and 8 nM | COc1ccc(/C=C/CCCCOc2ccc(Oc3cccc(C(=O)O)c3)cc2CCC(=O)O)cc1 [CGS 23130]
293 nM and 364 nM | CCc1cc(C(C)=O)c(O)cc1OCCCCC(C)(C)c1nnn[nH]1 [CGS 23167]
